# Assay results published in US8790708B2, “Coated tablet formulations and uses thereof” (Wyeth LLC, priority 2009, dated 2014).
# Where a name gives a salt, the structure may show the parent alone.
# Assay: Surface free energy (work of cohesion) of particles
# Assay type: physicochemical
# From the text: This property renders the primary particles very cohesive and prone to aggregation as described by B. Janczuk and T. Bialopiotrowicz, “Surface Free-Energy Components of Liquids and Low Energy Solids and Contact Angles,” in J. Colloid Interf. Sci. 127 (1989), p. 189-204; W. R. Good, “A Comparison of Contact Angle Interpretations,” in J. Colloid Interf. Sci. 44 (1973), p. 63; M. D. Lechner (Ed.), Landolt Börnstein, New Series, Vol. IV/16, “Surface Tension of Pure Liquids and Binary Liquid Mixture,” Springer Verlag, 1998; and J. J. Jasper, “The Surface Tension of Pure Liquid Compounds,” in J. Phys. Chem. Ref. Data, Vol. 1, No. 4, 1972, p. 859. […] Due to these limitations, it was not possible to develop a neratinib maleate formulation comprising a capsule or tablet of higher strength employing a direct compression or roller compaction processes successfully. A formulation using a conventional wet granulation method led to chemical degradation and stability issues.
smiles,measurement,value
"CCOc1cc2ncc(C#N)c(Nc3ccc(OCc4ccccn4)c(Cl)c3)c2cc1NC(=O)/C=C/CN(C)C [Neratinib maleate, (E)-N-(4-(3-chloro-4-(pyridin-2-ylmethoxy)phenylamino)-3-cyano-7-ethoxyquinolin-6-yl)-4-(dimethylamino)but-2-enamide]",work of cohesion (surface free energy),45.62 mN/m
